Assay results as given in patent US8329904B2, “Azacyclic derivatives” (Hoffmann-La Roche Inc., priority 2009, dated 2012).

target: T1, human HSL (Homo sapiens, UniProt Q05469); assay: Human Hormone-Sensitive Lipase (HSL) Enzyme Inhibition Assay; type: biochemical; conditions: colorimetric assay, 2,3-dimercapto-1-propanol tributyrate (DMPT) substrate, 37° C. for 20 minutes, absorbance at 405 nm; read-out: HSL hum IC50
T1 construct: overlapping PCR to generate a full length human HSL ORF with a 3′-His6 tag; His6 (C); made in house; host or cells: High 5 insect cells (baculovirus, pFast-BAC)
T1 sequence (Q05469 1-1076): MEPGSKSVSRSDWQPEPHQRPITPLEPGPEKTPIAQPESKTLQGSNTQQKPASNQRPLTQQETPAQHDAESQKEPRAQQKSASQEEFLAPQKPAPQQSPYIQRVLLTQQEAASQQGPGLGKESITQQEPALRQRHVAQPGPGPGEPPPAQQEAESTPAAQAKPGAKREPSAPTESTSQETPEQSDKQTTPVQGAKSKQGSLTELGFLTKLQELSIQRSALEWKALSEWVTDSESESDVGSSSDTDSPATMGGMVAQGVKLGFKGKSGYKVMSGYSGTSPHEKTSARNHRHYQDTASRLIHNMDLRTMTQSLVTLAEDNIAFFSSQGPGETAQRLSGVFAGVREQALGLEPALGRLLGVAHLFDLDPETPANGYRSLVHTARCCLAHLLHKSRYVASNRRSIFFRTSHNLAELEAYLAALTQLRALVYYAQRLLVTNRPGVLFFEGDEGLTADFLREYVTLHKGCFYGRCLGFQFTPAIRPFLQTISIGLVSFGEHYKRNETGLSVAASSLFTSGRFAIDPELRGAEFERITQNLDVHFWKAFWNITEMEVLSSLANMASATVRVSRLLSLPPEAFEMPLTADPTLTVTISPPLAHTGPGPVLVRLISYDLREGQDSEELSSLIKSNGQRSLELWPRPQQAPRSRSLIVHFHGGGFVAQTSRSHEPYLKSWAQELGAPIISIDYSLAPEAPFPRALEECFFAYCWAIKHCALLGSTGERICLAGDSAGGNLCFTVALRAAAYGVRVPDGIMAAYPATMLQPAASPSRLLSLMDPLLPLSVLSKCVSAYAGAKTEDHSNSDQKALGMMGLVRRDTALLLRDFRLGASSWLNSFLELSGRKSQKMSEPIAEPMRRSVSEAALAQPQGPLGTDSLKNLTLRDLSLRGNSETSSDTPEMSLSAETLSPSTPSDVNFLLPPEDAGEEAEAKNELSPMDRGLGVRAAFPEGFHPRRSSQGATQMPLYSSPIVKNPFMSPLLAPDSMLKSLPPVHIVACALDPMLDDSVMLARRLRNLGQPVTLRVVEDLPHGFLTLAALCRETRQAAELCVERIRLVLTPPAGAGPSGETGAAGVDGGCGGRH
How it was run: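 Colorimetric thioester hydrolysis: compounds in DMSO series mixed with DMPT (1.5 mM) in MOPS pH 7.2 with BSA, then baculovirus-expressed His6-tagged full-length human HSL added, 37° C, 20 min. DTNB plus detergents added, 15 min room temperature, absorbance at 405 nm.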

| Compound | IC50 |
| --- | --- |
| CCc1ccc(CCN2CCC3(CCN(S(=O)(=O)c4ccccc4Cl)CC3)C2=O)cc1 [Example 237, 8-(2-Chloro-benzenesulfonyl)-2-[2-(4-ethyl-phenyl)-ethyl]-2,8-diaza-spiro[4.5]decan-1-one] | 0.04 µM |
| CC(C)(C)c1ccc(CCN2CCC3(CCN(S(=O)(=O)c4ccccc4Cl)CC3)C2=O)cc1 [Example 238, 2-[2-(4-tert-Butyl-phenyl)-ethyl]-8-(2-chloro-benzenesulfonyl)-2,8-diaza-spiro[4.5]decan-1-one] | 0.1 µM |
| O=C1N(CCc2ccc(F)cc2)CCC12CCN(S(=O)(=O)c1ccccc1Cl)CC2 [Example 239, 8-(2-Chloro-benzenesulfonyl)-2-[2-(4-fluoro-phenyl)-ethyl]-2,8-diaza-spiro[4.5]decan-1-one] | 0.06 µM |
| COc1ccc(CCN2CCC3(CCN(S(=O)(=O)c4ccccc4Cl)CC3)C2=O)cc1 [Example 240, 8-(2-Chloro-benzenesulfonyl)-2-[2-(4-methoxy-phenyl)-ethyl]-2,8-diaza-spiro[4.5]decan-1-one] | 0.06 µM |
| O=C1N(CCCc2ccccc2)CCC12CCN(S(=O)(=O)c1ccccc1Cl)CC2 [Example 241, 8-(2-Chloro-benzenesulfonyl)-2-(3-phenyl-propyl)-2,8-diaza-spiro[4.5]decan-1-one] | 0.09 µM |
| O=C1N(CCc2ccccc2Cl)CCC12CCN(S(=O)(=O)c1ccccc1Cl)CC2 [Example 242, 8-(2-Chloro-benzenesulfonyl)-2-[2-(2-chloro-phenyl)-ethyl]-2,8-diaza-spiro[4.5]decan-1-one] | 0.21 µM |
| O=C1N(CCc2cccc(F)c2)CCC12CCN(S(=O)(=O)c1ccccc1Cl)CC2 [Example 243, 8-(2-Chloro-benzenesulfonyl)-2-[2-(3-fluoro-phenyl)-ethyl]-2,8-diaza-spiro[4.5]decan-1-one] | 0.05 µM |
| COc1cccc(CCN2CCC3(CCN(S(=O)(=O)c4ccccc4Cl)CC3)C2=O)c1 [Example 244, 8-(2-Chloro-benzenesulfonyl)-2-[2-(3-methoxy-phenyl)-ethyl]-2,8-diaza-spiro[4.5]decan-1-one] | 0.23 µM |
| O=C1N(CCc2cccc(C(F)(F)F)c2)CCC12CCN(S(=O)(=O)c1ccccc1Cl)CC2 [Example 245, 8-(2-Chloro-benzenesulfonyl)-2-[2-(3-trifluoromethyl-phenyl)-ethyl]-2,8-diaza-spiro[4.5]decan-1-one] | 0.1 µM |
| O=C1N(CCCCc2ccccc2)CCC12CCN(S(=O)(=O)c1ccccc1Cl)CC2 [Example 246, 8-(2-Chloro-benzenesulfonyl)-2-(4-phenyl-butyl)-2,8-diaza-spiro[4.5]decan-1-one] | 0.08 µM |
| O=C1N(CCc2cccc(Cl)c2)CCC12CCN(S(=O)(=O)c1ccccc1Cl)CC2 [Example 247, 8-(2-Chloro-benzenesulfonyl)-2-[2-(3-chloro-phenyl)-ethyl]-2,8-diaza-spiro[4.5]decan-1-one] | 0.08 µM |
| O=C1N(CCc2ccc(Cl)c(Cl)c2)CCC12CCN(S(=O)(=O)c1ccccc1Cl)CC2 [Example 248, 8-(2-Chloro-benzenesulfonyl)-2-[2-(3,4-dichloro-phenyl)-ethyl]-2,8-diaza-spiro[4.5]decan-1-one] | 0.07 µM |
| CC(Cc1ccc(F)cc1)N1CCC2(CCN(S(=O)(=O)c3ccccc3Cl)CC2)C1=O (stereo not shown) [Example 249, 8-(2-Chloro-benzenesulfonyl)-2-[2-(4-fluoro-phenyl)-1-methyl-ethyl]-2,8-diaza-spiro[4.5]decan-1-one] | 0.46 µM |
| CCc1ccc(N2CCC3(CCN(S(=O)(=O)c4ccccc4Cl)CC3)C2=O)cn1 [Example 250, 8-(2-Chloro-benzenesulfonyl)-2-(6-ethyl-pyridin-3-yl)-2,8-diaza-spiro[4.5]decan-1-one] | 0.11 µM |
| CCCNC(=O)N1CCC2(CC1)CCN(c1ccc(OC(F)(F)F)cc1)C2=O [Example 251, 1-Oxo-2-(4-trifluoromethoxy-phenyl)-2,8-diaza-spiro[4.5]decane-8-carboxylic acid propylamide] | 0.47 µM |
| CCCN(C)C(=O)N1CCC2(CC1)CCN(c1ccc(CC)cc1)C2=O [Example 252, 2-(4-Ethyl-phenyl)-1-oxo-2,8-diaza-spiro[4.5]decane-8-carboxylic acid methyl-propyl-amide] | 0.18 µM |

| Compound | IC50 |
| --- | --- |
| CCCN(C)C(=O)N1CCC2(CC1)CCN(c1ccc(OC(F)(F)F)cc1)C2=O [Example 253, 1-Oxo-2-(4-trifluoromethoxy-phenyl)-2,8-diaza-spiro[4.5]decane-8-carboxylic acid methyl-propyl-amide] | 0.14 µM |
| CC(C)NC(=O)N1CCC2(CC1)CCN(c1ccc(OC(F)(F)F)cc1)C2=O [Example 254, 1-Oxo-2-(4-trifluoromethoxy-phenyl)-2,8-diaza-spiro[4.5]decane-8-carboxylic acid isopropylamide] | 0.4 µM |
| CCc1ccc(N2CCC3(CCN(C(=O)N4CCCCC4)CC3)C2=O)cc1 [Example 255, 2-(4-Ethyl-phenyl)-8-(piperidine-1-carbonyl)-2,8-diaza-spiro[4.5]decan-1-one] | 0.18 µM |
| O=C(N1CCCCC1)N1CCC2(CC1)CCN(c1ccc(OC(F)(F)F)cc1)C2=O [Example 256, 8-(Piperidine-1-carbonyl)-2-(4-trifluoromethoxy-phenyl)-2,8-diaza-spiro[4.5]decan-1-one] | 0.1 µM |
| O=C(N1CCOCC1)N1CCC2(CC1)CCN(c1ccc(OC(F)(F)F)cc1)C2=O [Example 257, 8-(Morpholine-4-carbonyl)-2-(4-trifluoromethoxy-phenyl)-2,8-diaza-spiro[4,5]decan-1-one] | 0.61 µM |
| CCc1ccc(N2CCC3(CCN(C(=O)Nc4ccc(F)cc4)CC3)C2=O)cc1 [Example 258, 2-(4-Ethyl-phenyl)-1-oxo-2,8-diaza-spiro[4.5]decane-8-carboxylic acid (4-fluoro-phenyl)-amide] | 0.4 µM |
| O=C(Nc1ccc(F)cc1)N1CCC2(CC1)CCN(c1ccc(OC(F)(F)F)cc1)C2=O [Example 259, 1-Oxo-2-(4-trifluoromethoxy-phenyl)-2,8-diaza-spiro[4.5]decane-8-carboxylic acid (4-fluoro-phenyl)-amide] | 0.4 µM |
| CCc1ccc(N2CCC3(CCN(C(=O)NCc4ccc(F)cc4)CC3)C2=O)cc1 [Example 260, 2-(4-Ethyl-phenyl)-1-oxo-2,8-diaza-spiro[4.5]decane-8-carboxylic acid 4-fluoro-benzylamide] | 0.31 µM |
| O=C(NCc1ccc(F)cc1)N1CCC2(CC1)CCN(c1ccc(OC(F)(F)F)cc1)C2=O [Example 261, 1-Oxo-2-(4-trifluoromethoxy-phenyl)-2,8-diaza-spiro[4.5]decane-8-carboxylic acid 4-fluoro-benzylamide] | 0.19 µM |
| O=C(NCc1ccccc1Cl)N1CCC2(CC1)CCN(c1ccc(OC(F)(F)F)cc1)C2=O [Example 262, 1-Oxo-2-(4-trifluoromethoxy-phenyl)-2,8-diaza-spiro[4.5]decane-8-carboxylic acid 2-chloro-benzylamide] | 0.34 µM |
| CCc1ccc(N2CCC3(CCN(C(=O)NCCc4ccccc4)CC3)C2=O)cc1 [Example 263, 2-(4-Ethyl-phenyl)-1-oxo-2,8-diaza-spiro[4.5]decane-8-carboxylic acid phenethyl-amide] | 0.16 µM |
| O=C(NCCc1ccccc1)N1CCC2(CC1)CCN(c1ccc(OC(F)(F)F)cc1)C2=O [Example 264, 1-Oxo-2-(4-trifluoromethoxy-phenyl)-2,8-diaza-spiro[4.5]decane-8-carboxylic acid phenethyl-amide] | 0.14 µM |
| O=C(N1CCCC1)N1CCC2(CC1)CCN(c1ccc(OC(F)(F)F)cc1)C2=O [Example 265, 8-(Pyrrolidine-1-carbonyl)-2-(4-trifluoromethoxy-phenyl)-2,8-diaza-spiro[4.5]decan-1-one] | 0.2 µM |
| CCN(CC)C(=O)N1CCC2(CC1)CCN(c1ccc(OC(F)(F)F)cc1)C2=O [Example 266, 1-Oxo-2-(4-trifluoromethoxy-phenyl)-2,8-diaza-spiro[4.5]decane-8-carboxylic acid diethylamide] | 0.33 µM |
| CC1CCCN1C(=O)N1CCC2(CC1)CCN(c1ccc(OC(F)(F)F)cc1)C2=O (stereo not shown) [Example 267, 8-(2-Methyl-pyrrolidine-1-carbonyl)-2-(4-trifluoromethoxy-phenyl)-2,8-diaza-spiro[4.5]decan-1-one] | 0.15 µM |
